In US20220098525A1, “LAUNDRY DETERGENT” (Conopco, Inc., d/b/a UNILEVER, priority 2019, published 2022):
Where two headings read alike, the source gives them in different places.

Assays:
Type in all cases: physicochemical
[1] = dissolution of dye in water for pKa measurement; settings: approximately 2×10^−5 mol L^−1 in water, conditions analogous to the reference dye
Experimental: (§1) pKa values (acid dissociation constant) were measured for the reference dye by dissolving approximately 2×10^−5 mol L^−1 of the dye in water then varying the pH from 9.6 to 1.9 and observing the changes in the UV-VIS spectrum at 570 nm. The pKa values are higher than expected for a free —COOH group which would be 3 to 4 and is attributed to the effect of the alkyl chains.

[2] = hydrolysis in the region of pH 4 to 10
[3] = pKa measured by pH variation and UV-VIS spectrum at 570 nm; settings: water, pH 4, approximately 2×10^−5 mol L^−1 dye in water, pH varied 9.6 to 1.9, UV-VIS at 570 nm; dual pKa fit for the 2 -COOH groups
Experimental: as §1

Row | dissolution in water [1] | hydrolysis [2] | hydrolysis ([2]; listed as inventive compound) | pKa [3] | SMILES
1 | did not dissolve | not observed | resistant to hydrolysis |  | C=COCCOCCN(CCOCCO)c1ccc(/N=N/c2sc(C#N)c(C)c2C#N)c(C)c1 [inventive]
2 |  | observed |  | 7.5 | CCCCC/C=C/CC(CC(=O)OCCOCCN(CCOCCOC(=O)CC(C/C=C/CCCCC)C(=O)O)c1ccc(/N=N/c2sc(C#N)c(C)c2C#N)c(C)c1)C(=O)O (centres unmarked) [reference, reference compound]
